In PubChem BioAssay (NCI):
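Assay format: 96-well plates, 48-hour exposure. TGI denotes the concentration required for complete inhibition of growth.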

Key:
Test in all cases: NCI anticancer screen, dose series, 48 h
[1] = test system: TK-10 renal
[2] = test system: NCI-H522 lung
[3] = test system: SF-295 CNS
[4] = test system: CAKI-1 renal
[5] = test system: A549 NSCLC
[6] = test system: SN12C renal
[7] = test system: HS 578T breast
[8] = test system: 786-0 renal
[9] = test system: KM12 colon
[10] = test system: COLO 205 colon
[11] = test system: SK-MEL-5 melanoma
[12] = test system: HL-60(TB) leukemia
[13] = test system: CCRF-CEM leukemia
[14] = test system: MALME-3M melanoma
[15] = test system: A498 renal
[16] = test system: OVCAR-5 ovarian
[17] = test system: HCT-15 colon
[18] = test system: SNB-75 CNS
[19] = test system: M14 melanoma
[20] = test system: T-47D breast
[21] = test system: LOX IMVI melanoma
[22] = test system: UO-31 renal
[23] = test system: OVCAR-4 ovarian
[24] = test system: UACC-62 melanoma
[25] = test system: NCI/ADR-RES ovarian
[26] = test system: HCT-116 colon
[27] = test system: RPMI-8226 leukemia
[28] = test system: BT-549 breast
[29] = test system: SF-268 CNS
[30] = test system: U251 CNS
[31] = test system: SF-539 CNS
[32] = test system: EKVX NSCLC
[33] = test system: MOLT-4 leukemia
[34] = test system: SK-MEL-2 melanoma
[35] = test system: K-562 leukemia
[36] = test system: HT29 colon
[37] = test system: ACHN renal
[38] = test system: SR leukemia
[39] = test system: NCI-H23 lung
[40] = test system: HOP-92 NSCLC
[41] = test system: SW-620 colon
[42] = test system: SNB-19 CNS
[43] = test system: MDA-MB-435
[44] = test system: PC-3 prostate
[45] = test system: SK-OV-3 ovarian
[46] = test system: MCF7 breast
[47] = test system: OVCAR-8 ovarian
[48] = test system: OVCAR-3 ovarian
[49] = test system: MDA-N
[50] = test system: MDA-MB-231 breast
[51] = test system: UACC-257 melanoma
[52] = test system: NCI-H460 lung
[53] = test system: NCI-H226 lung
[54] = test system: DU-145 prostate
[55] = test system: RXF 393 renal
[56] = test system: HCC-2998 colon
[57] = test system: IGROV1 ovarian
[58] = test system: SK-MEL-28 melanoma
[59] = test system: HOP-62 NSCLC

Cn1c(=O)sc2cc(C(=S)N3CCOCC3)ccc21
TGI [1]: > 100 µM | TGI [2]: > 100 µM | TGI [3]: > 100 µM | TGI [4]: > 100 µM | TGI [5]: > 100 µM | TGI [6]: > 100 µM | TGI [7]: > 100 µM | TGI [8]: > 100 µM | TGI [9]: > 100 µM | TGI [10]: > 100 µM | TGI [11]: > 100 µM | TGI [12]: > 100 µM | TGI [13]: > 100 µM | TGI [14]: > 100 µM | TGI [15]: > 100 µM | TGI [16]: > 100 µM | TGI [17]: > 100 µM | TGI [18]: > 95.3 µM | TGI [19]: > 100 µM | TGI [20]: > 100 µM | TGI [21]: > 100 µM | TGI [22]: > 100 µM | TGI [23]: > 100 µM | TGI [24]: > 100 µM | TGI [25]: > 100 µM | TGI [26]: > 100 µM | TGI [27]: > 100 µM | TGI [28]: > 100 µM | TGI [29]: > 100 µM | TGI [30]: > 100 µM | TGI [31]: > 100 µM | TGI [32]: > 100 µM | TGI [33]: > 100 µM | TGI [34]: > 100 µM | TGI [35]: > 100 µM | TGI [36]: > 100 µM | TGI [37]: > 100 µM | TGI [38]: > 100 µM | TGI [39]: > 100 µM | TGI [40]: > 100 µM | TGI [41]: > 100 µM | TGI [42]: > 100 µM | TGI [43]: > 100 µM | TGI [44]: > 100 µM | TGI [45]: > 100 µM | TGI [46]: > 100 µM | TGI [47]: > 100 µM | TGI [48]: > 100 µM | TGI [49]: > 100 µM | TGI [50]: > 100 µM | TGI [51]: > 100 µM | TGI [52]: > 100 µM | TGI [53]: > 100 µM | TGI [54]: > 100 µM | TGI [55]: > 100 µM | TGI [56]: > 100 µM | TGI [57]: > 100 µM | TGI [58]: > 100 µM | TGI [59]: > 100 µM

COc1ccc(C(=O)c2ccc(-n3cc(/C=C/[N+](=O)[O-])c4ccccc43)cc2)cc1
TGI [1]: 16.8 µM | TGI [2]: 33.8 µM | TGI [3]: > 100 µM | TGI [4]: > 52.3 µM | TGI [5]: > 100 µM | TGI [6]: 42.7 µM | TGI [7]: 19.9 µM | TGI [8]: 11.2 µM | TGI [9]: 55.2 µM | TGI [10]: > 63.5 µM | TGI [11]: > 61.9 µM | TGI [12]: 44.6 µM | TGI [13]: > 20.2 µM | TGI [14]: 46.8 µM | TGI [15]: 44.9 µM | TGI [16]: > 100 µM | TGI [17]: 41.1 µM | TGI [18]: > 100 µM | TGI [19]: > 74.5 µM | TGI [20]: 6.41 µM | TGI [21]: 19.2 µM | TGI [22]: 37.1 µM | TGI [23]: > 100 µM | TGI [24]: 28.5 µM | TGI [25]: 56.5 µM | TGI [26]: 28.2 µM | TGI [27]: > 100 µM | TGI [28]: 33.7 µM | TGI [29]: > 54.1 µM | TGI [30]: 24.9 µM | TGI [31]: 31.3 µM | TGI [32]: 55 µM | TGI [33]: > 100 µM | TGI [34]: 58 µM | TGI [35]: > 100 µM | TGI [36]: 57.3 µM | TGI [37]: 52 µM | TGI [38]: > 100 µM | TGI [39]: 52.4 µM | TGI [40]: 34.9 µM | TGI [41]: > 100 µM | TGI [42]: > 72.4 µM | TGI [43]: 49.3 µM | TGI [44]: 49.9 µM | TGI [45]: > 71.3 µM | TGI [46]: > 34.2 µM | TGI [47]: 45.2 µM | TGI [48]: 27.1 µM | TGI [49]: > 58.9 µM | TGI [50]: 43.9 µM | TGI [51]: 31.3 µM | TGI [52]: > 66.1 µM | TGI [53]: > 92.9 µM | TGI [54]: > 51.2 µM | TGI [55]: 10.8 µM | TGI [56]: 48.9 µM | TGI [57]: 26.2 µM | TGI [58]: > 89.2 µM | TGI [59]: 35.4 µM
